Values of other authors, collected in US20240254438A1, “MULTI-REGIONAL HUMAN NEURAL CIRCUITS IN ASSEMBLOIDS DERIVED FROM PLURIPOTENT STEM CELLS” (The Board of Trustees of the Leland Stanford Junior …, priority 2021, published 2024).
Values belong to the compound of their own block, whether it stands above or below them.

Key:
[1] = molecular target: Smo heptahelical domain (Homo sapiens, UniProt Q99835)
[2] = molecular target: element-binding protein (CBP) (Homo sapiens, UniProt Q92793); conditions: binds to element-binding protein (CBP)
element-binding protein (CBP), sequence (Q92793 whole entry): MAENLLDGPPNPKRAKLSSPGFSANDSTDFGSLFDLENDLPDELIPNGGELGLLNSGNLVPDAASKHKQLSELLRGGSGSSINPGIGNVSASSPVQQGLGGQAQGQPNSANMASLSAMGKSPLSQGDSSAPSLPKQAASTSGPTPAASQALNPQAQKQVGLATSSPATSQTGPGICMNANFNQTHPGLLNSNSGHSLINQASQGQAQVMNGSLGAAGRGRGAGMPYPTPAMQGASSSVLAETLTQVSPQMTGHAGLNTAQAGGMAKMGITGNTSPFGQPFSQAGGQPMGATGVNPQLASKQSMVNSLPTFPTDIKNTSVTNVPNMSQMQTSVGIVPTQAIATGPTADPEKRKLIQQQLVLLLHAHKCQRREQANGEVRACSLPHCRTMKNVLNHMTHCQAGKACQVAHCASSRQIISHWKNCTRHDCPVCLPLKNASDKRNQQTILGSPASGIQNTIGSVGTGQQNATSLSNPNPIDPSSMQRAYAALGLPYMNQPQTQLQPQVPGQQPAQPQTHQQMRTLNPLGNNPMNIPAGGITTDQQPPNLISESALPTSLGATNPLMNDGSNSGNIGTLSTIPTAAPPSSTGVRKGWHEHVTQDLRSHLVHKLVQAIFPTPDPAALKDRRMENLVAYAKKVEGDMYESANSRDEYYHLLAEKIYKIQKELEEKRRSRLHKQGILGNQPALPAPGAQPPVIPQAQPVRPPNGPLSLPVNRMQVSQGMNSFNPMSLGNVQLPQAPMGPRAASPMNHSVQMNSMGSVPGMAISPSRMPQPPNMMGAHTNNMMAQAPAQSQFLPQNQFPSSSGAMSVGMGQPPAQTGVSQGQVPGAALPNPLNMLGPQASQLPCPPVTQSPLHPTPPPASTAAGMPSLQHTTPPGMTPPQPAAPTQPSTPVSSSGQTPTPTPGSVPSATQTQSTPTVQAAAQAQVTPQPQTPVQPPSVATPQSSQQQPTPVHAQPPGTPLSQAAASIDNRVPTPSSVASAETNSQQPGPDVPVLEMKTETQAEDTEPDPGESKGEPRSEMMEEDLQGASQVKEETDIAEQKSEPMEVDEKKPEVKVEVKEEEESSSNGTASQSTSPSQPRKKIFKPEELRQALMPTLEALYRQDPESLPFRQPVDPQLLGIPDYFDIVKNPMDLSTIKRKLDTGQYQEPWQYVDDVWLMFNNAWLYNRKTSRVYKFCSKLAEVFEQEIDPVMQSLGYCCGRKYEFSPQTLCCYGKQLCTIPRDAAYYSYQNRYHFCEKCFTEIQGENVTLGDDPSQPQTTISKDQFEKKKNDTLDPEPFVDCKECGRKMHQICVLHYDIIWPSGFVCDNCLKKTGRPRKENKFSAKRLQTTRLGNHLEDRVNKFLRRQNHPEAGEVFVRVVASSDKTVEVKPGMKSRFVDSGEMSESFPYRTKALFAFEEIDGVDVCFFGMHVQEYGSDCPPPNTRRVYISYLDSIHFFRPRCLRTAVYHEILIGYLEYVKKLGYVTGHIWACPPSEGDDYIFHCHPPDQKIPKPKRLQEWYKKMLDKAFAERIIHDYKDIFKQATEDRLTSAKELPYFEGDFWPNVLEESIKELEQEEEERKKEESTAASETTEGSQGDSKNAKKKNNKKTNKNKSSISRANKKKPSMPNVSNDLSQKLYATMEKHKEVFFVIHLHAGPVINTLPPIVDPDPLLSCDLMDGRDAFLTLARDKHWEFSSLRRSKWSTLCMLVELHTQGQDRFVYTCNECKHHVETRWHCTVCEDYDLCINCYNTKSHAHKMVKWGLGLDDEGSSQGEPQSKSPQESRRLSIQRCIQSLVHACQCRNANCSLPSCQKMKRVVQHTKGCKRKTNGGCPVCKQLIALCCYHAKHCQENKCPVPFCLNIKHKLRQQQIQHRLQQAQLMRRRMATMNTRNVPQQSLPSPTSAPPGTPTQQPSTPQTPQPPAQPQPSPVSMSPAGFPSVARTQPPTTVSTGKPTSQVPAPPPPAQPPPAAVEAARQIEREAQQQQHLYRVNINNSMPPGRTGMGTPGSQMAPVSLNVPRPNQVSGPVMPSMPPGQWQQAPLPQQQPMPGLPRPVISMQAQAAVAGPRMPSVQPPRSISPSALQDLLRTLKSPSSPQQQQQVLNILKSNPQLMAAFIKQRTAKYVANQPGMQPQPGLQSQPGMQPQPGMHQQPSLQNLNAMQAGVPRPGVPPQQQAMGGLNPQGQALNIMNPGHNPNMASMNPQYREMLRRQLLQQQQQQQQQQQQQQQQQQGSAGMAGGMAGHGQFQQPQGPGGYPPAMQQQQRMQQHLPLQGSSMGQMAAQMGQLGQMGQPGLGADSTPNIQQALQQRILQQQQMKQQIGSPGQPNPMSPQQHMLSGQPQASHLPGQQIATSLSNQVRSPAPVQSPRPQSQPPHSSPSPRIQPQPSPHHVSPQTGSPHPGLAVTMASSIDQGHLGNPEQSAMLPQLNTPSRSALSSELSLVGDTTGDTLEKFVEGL

[3] = system: PORCN
[4] = system: Wnt processing and secretion; conditions: cell-free assay
[5] = system: Wnt signaling; conditions: TM3 cells
[6] = system: PORCN; conditions: HEK293 cells, Wnt3A-mediated TCF luciferase
[7] = molecular target: T1, TNKS2 (Homo sapiens, UniProt Q9H2K2)
T1 sequence (Q9H2K2 1-1166): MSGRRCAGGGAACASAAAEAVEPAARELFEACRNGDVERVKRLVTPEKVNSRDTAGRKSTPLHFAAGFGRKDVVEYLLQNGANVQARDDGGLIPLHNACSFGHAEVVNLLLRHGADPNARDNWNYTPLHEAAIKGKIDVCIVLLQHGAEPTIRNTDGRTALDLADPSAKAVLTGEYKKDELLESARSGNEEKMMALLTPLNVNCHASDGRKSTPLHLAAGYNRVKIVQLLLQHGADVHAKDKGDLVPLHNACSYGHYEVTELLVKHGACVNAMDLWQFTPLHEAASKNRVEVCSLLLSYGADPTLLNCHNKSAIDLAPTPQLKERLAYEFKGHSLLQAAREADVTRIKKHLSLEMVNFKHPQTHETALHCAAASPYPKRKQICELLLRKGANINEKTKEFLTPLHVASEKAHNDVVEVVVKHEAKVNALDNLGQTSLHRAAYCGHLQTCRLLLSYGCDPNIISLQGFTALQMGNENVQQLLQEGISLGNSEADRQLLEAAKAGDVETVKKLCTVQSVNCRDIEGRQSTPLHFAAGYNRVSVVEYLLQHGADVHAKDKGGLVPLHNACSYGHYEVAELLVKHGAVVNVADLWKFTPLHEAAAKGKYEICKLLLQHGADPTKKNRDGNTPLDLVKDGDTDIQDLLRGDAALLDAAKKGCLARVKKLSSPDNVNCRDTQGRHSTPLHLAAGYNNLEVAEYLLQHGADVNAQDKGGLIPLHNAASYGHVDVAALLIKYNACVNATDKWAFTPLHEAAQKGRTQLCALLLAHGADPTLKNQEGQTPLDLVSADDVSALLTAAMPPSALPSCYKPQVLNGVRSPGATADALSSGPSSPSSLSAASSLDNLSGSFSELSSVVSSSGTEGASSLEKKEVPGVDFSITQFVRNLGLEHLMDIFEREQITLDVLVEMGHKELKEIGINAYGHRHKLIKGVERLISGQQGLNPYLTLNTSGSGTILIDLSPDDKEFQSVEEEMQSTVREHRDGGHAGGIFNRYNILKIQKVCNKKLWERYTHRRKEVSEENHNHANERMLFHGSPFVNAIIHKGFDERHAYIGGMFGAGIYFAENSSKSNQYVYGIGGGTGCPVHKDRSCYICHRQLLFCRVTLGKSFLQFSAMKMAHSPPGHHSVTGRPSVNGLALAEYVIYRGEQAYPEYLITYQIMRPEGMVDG

Smo heptahelical domain, sequence (Q99835 28-787): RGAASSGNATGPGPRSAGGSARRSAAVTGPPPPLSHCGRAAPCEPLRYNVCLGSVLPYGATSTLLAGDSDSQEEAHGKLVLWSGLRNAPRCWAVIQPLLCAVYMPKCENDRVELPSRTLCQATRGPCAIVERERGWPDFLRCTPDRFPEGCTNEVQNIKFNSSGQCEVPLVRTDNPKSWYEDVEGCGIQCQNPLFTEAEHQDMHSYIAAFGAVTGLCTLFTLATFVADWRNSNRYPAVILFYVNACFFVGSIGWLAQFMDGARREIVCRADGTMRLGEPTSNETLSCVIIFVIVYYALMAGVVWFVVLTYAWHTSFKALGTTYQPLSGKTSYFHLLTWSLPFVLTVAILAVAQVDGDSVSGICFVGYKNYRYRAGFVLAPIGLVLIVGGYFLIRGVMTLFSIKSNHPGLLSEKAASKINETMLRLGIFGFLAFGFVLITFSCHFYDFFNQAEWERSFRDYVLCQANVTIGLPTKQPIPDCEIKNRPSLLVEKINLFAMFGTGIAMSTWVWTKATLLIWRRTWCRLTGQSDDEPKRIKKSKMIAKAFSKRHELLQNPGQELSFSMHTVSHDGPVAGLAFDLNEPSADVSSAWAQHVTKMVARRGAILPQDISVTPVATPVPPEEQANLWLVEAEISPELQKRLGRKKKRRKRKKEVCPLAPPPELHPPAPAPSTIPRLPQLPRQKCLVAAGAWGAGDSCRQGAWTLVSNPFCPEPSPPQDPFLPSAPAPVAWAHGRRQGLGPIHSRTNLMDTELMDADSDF

Kd [1]: 59 nM
Structure (SMILES): CNC1CCC(N(Cc2cccc(-c3ccncc3)c2)C(=O)c2sc3ccccc3c2Cl)CC1 (stereo not shown) [SAG]

IC50 [2]: 3000 nM
Structure (SMILES): O=C1[C@H](Cc2ccc(O)cc2)N2C(=O)CCN(C(=O)NCc3ccccc3)[C@H]2CN1Cc1cccc2ccccc12 [ICG-001]

EC50 [3]: 0.5 nM
Structure (SMILES): O=C(CSc1nc2c(c(=O)n1-c1ccccc1)SCC2)Nc1ccc(-c2ccccc2)cn1 [IWP-L6]

IC50 [4]: 27 nM
Structure (SMILES): Cc1ccc2nc(NC(=O)CSc3nc4c(c(=O)n3-c3ccccc3)SCC4)sc2c1 [IWP-2]

IC50 [5]: 0.4 nM
Structure (SMILES): Cc1cc(-c2ncc(CC(=O)Nc3ccc(-c4cnccn4)cn3)cc2C)ccn1 [LGK-974]

Structure (SMILES): Cc1cc(-c2ccc(CC(=O)Nc3ccc(-c4cccnc4)cc3)cc2)ccn1 [Wnt-C59]
IC50 [6]: 0.074 nM

IC50 [7]: 15 nM
Structure (SMILES): COc1ccc(-n2c(SCCCN3C(=O)c4cccc5cccc(c45)C3=O)nnc2-c2ccncc2)cc1 [WIKI4]
